US20250197387A1, “BCL-XL DEGRADERS AND USES THEREOF” (Kymera Therapeutics, Inc., priority 2021, published 2025)
Where two headings read alike, the source gives them in different places.

What was measured:
Format in all cases: cell-based
[1] = biological target: T1, BCL-XL (Homo sapiens, UniProt Q07817); assay: Bcl-xL ELISA degradation in MOLT-4 cells, 6 h; conditions: for DC50: read-out: Bcl-xL ELISA in MOLT-4 degradation 6 h: Mean external-Abs DC50
T1 construct: endogenous in cells; host or cells: MOLT-4
T1 sequence (Q07817 whole entry): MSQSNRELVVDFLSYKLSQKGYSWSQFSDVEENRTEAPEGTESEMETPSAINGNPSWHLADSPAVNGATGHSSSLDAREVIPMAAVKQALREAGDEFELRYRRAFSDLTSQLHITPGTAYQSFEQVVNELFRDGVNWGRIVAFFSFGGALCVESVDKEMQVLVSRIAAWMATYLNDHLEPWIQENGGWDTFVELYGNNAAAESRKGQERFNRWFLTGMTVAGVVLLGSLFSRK
Protocol: The letter codes for BCL-XL DC50 include: A (<0.01 μM); B (0.01-0.1 μM); C (>[…]); D (>0.5-1.0 μM); and E (>1.0 μM). The letter codes for Dmax % include A (>75%); B (50 to 75%); C (<50%).

[2] = test system: MOLT-4 cells; assay: CTG (CellTiter-Glo) cell viability assay, MOLT-4; conditions: Homo sapiens, 3 day incubation, read-out: CTG Cell Viability Assay - MOLT-4 3 day: Average external-IC50
How it was run: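 IC50 is from a three-parameter logistic fit of CellTiter-Glo luminescence after 3-day treatment of cells seeded at 10,000 per well. Codes: MOLT-4 A <0.1, B 0.1-1.0, C >1.0-3.0, D >3.0 μM; Caki-2 A <0.1, B 0.1-1.0, C >1.0-10.0, D >10.0 μM.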

[3] = test system: Caki-2 cells; assay: CTG (CellTiter-Glo) cell viability assay, Caki-2; conditions: Homo sapiens, 72 h, 3 day incubation, read-out: CTG Chempartner - Caki-2 3 day: Average external-IC50
Protocol: Compound-mediated viability effect on MOLT-4 and Caki-2 was quantitatively determined using the CellTiter-Glo® Luminescent Cell Viability Assay kit from Promega (Catalog number G7570) following manufacturer's recommended procedures. Briefly, MOLT-4 and Caki-2 cells were seeded into 384 well plates (Grenier Bio-One, Catalog number 781080) with a density of 10,000 cells per well. Compounds were then added to the assay plate with final top concentration of 10 μM and 1:3 dilution series with total of 9 doses. The final DMSO concentration is normalized to 0.2%. The assay plates were incubated at 37° C., for 3 days under 5% CO2. Then the assay plate was equilibrated at room temperature for 10 minutes. To determine cell viability, 30 uL CellTiter Glo reagent was added to each well and the assay plate was centrifuged at 1000 rpm for 30 second, incubated at room temperature for 10 min, and analyzed by detecting the luminescence using a multimode plate reader (EnVision 2105, PerkinElmer). The data was then analyzed by software Prism 7.0 from GraphPad and the dose response curves are fit using a three-parameter logistic equation to calculate IC50.
The letter codes for MOLT-4 IC50 include: A (<0.1 μM); B (0.1-1.0 μM); C (>1.0-3.0 μM); and D (>3.0 μM). The letter codes for Caki-2 IC50 include: A (<0.1 μM); B (0.1-1.0 μM); C (>1.0-10.0 μM); and D (>10.0 μM).

[4] = biological target: T1, BCL-XL; assay: BCL-XL degradation assay, western blot in MOLT-4 cells, 16 h; conditions: western blot, MOLT-4 cells, 16 h
How it was run: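 Infrared-imaged western blots quantified BCL-xL (normalised against beta-actin/GAPDH) after 16 hr, 37° C exposure of MOLT-4 cells to 0.02-10 μM compound; results given as DC50 and Dmax % bins.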

SMILES | IC50 ([2]; MOLT-4, 72 h) [nM] | IC50 [3] [nM] | further results
Cc1cc(N(C)c2ccc(-c3cnn(CC45CC6CC(CC(C6)C4)C5)c3C)c(C(=O)NS(=O)(=O)CCCCCc3ccc4c(c3)n(C)c(=O)n4C3CCC(=O)NC3=O)n2)nnc1Nc1nc2ccccc2s1 (centres unmarked) [I-424] | < 100 | 1000 to 10000 | Dmax [1]: > 75%; DC50 [1]: < 10 nM
Cc1ncsc1-c1ccc([C@H](C)NC(=O)[C@@H]2C[C@@H](O)CN2C(=O)[C@@H](NC(=O)CCCCCS(=O)(=O)NC(=O)c2nc(N3CCc4cccc(C(=O)Nc5nc6ccccc6s5)c4C3)ccc2-c2cccc3c2cnn3C(C)C)C(C)(C)C)cc1 [I-302] | 1000 to 3000 | 1000 to 10000 | Dmax [1]: 50 to 75%; DC50 [1]: 500 to 1000 nM
Cc1ncsc1-c1ccc([C@H](C)NC(=O)[C@@H]2C[C@@H](O)CN2C(=O)[C@@H](NC(=O)C2CCN(c3ccc(S(=O)(=O)NC(=O)c4nc(N5CCc6cccc(C(=O)Nc7nc8ccccc8s7)c6C5)ccc4-c4cnn(CC5CCCCC5)c4C)cc3CC(=O)O)CC2)C(C)(C)C)cc1 [I-296] | 100 to 1000 | 1000 to 10000 | Dmax [1]: 50 to 75%; DC50 [1]: 100 to 500 nM
C#Cc1ccc([C@H](C)NC(=O)[C@@H]2C[C@@H](O)CN2C(=O)[C@@H](NC(=O)CCCCCS(=O)(=O)NC(=O)c2nc(N3CCc4cccc(C(=O)Nc5nc6ccccc6s5)c4C3)ccc2-c2cnn(CC(C)(C)C)c2C)C(C)(C)C)cc1 [I-470] | < 100 | > 10000 | 
C#Cc1ccc([C@H](C)NC(=O)[C@@H]2C[C@@H](O)CN2C(=O)[C@@H](NC(=O)CCCCCS(=O)(=O)NC(=O)c2nc(N3CCc4cccc(C(=O)Nc5nc6cccnc6s5)c4C3)ccc2-c2cnn(CC(C)(C)C)c2C)C(C)(C)C)cc1 [I-469] | 100 to 1000 | > 10000 | 
Cc1cc(N(C)c2ccc(-c3cnn(CC4CCCC4)c3C)c(C(=O)NS(=O)(=O)c3ccc(N4CCC(C(=O)N[C@H](C(=O)N5C[C@H](O)C[C@H]5C(=O)N[C@@H](C)c5ccc(-c6scnc6C)cc5)C(C)(C)C)CC4)cc3)n2)nnc1Nc1nc2ccccc2s1 [I-441] | 1000 to 3000 | > 10000 | 
Cc1ccc(NC(=O)c2cccc3c2CN(c2ccc(-c4cnn(CC5CCCCC5)c4C)c(C(=O)NS(=O)(=O)CCCCCC(=O)N[C@H](C(=O)N4C[C@H](O)C[C@H]4C(=O)N[C@@H](C)c4ccc(-c5scnc5C)cc4)C(C)(C)C)n2)CC3)nc1 [I-458] | > 3000 | > 10000 | 
Cc1ncsc1-c1ccc([C@H](C)NC(=O)[C@@H]2C[C@@H](O)CN2C(=O)[C@@H](NC(=O)CCCCCS(=O)(=O)NC(=O)c2nc(N3CCc4cccc(C(=O)NCc5cnco5)c4C3)ccc2-c2cnn(CC3CCCCC3)c2C)C(C)(C)C)cc1 [I-461] | 100 to 1000 | > 10000 | 
C#Cc1ccc(CNC(=O)[C@@H]2C[C@@H](O)CN2C(=O)[C@@H](NC(=O)CCCCCS(=O)(=O)NC(=O)c2nc(N(C)c3cc(C)c(Nc4nc5ccccc5s4)nn3)ccc2-c2cnn(CC(C)(C)C)c2C)C(C)(C)C)cc1 [I-472] | 100 to 1000 | > 10000 | 
Cc1cc(N2CC(C(=O)N[C@H](C(=O)N3C[C@H](O)C[C@H]3C(=O)NCc3ccc(-c4scnc4C)cc3)C(C)(C)C)C2)ccc1S(=O)(=O)NC(=O)c1nc(N(C)c2cc(C)c(Nc3nc4ccccc4s3)nn2)ccc1-c1cnn(CC23CC4CC(CC(C4)C2)C3)c1C [I-435] | < 100 | > 10000 | 
Cc1csc(NC(=O)c2cccc3c2CN(c2ccc(-c4cnn(CC5CCCCC5)c4C)c(C(=O)NS(=O)(=O)CCCCCC(=O)N[C@H](C(=O)N4C[C@H](O)C[C@H]4C(=O)N[C@@H](C)c4ccc(-c5scnc5C)cc4)C(C)(C)C)n2)CC3)n1 [I-462] | 100 to 1000 | > 10000 | 
Cc1cc(N(C)c2ccc(-c3cnn(CC45CC6CC(CC(C6)C4)C5)c3C)c(C(=O)NS(=O)(=O)CCCCCC(=O)N[C@H](C(=O)N3C[C@H](O)C[C@H]3C(=O)N[C@@H](C)c3ccc(-c4scnc4C)cc3)C(C)(C)C)n2)nnc1Nc1nc2cccnc2s1 [I-439] | 100 to 1000 | > 10000 | 
C#Cc1ccc(CNC(=O)[C@@H]2C[C@@H](O)CN2C(=O)[C@@H](NC(=O)CCCCCS(=O)(=O)NC(=O)c2nc(N3CCc4cccc(C(=O)Nc5nc6cccnc6s5)c4C3)ccc2-c2cnn(CC(C)(C)C)c2C)C(C)(C)C)cc1 [I-468] | 1000 to 3000 | > 10000 | 
C#Cc1ccc(CNC(=O)[C@@H]2C[C@@H](O)CN2C(=O)[C@@H](NC(=O)CCCS(=O)(=O)NC(=O)c2nc(N3CCc4cccc(C(=O)Nc5nc6cccnc6s5)c4C3)ccc2-c2cnn(CC(C)C)c2C)C(C)(C)C)cc1 [I-412] | > 3000 | > 10000 | 
Cc1ncsc1-c1ccc([C@H](C)NC(=O)[C@@H]2C[C@@H](O)CN2C(=O)[C@@H](NC(=O)CCCCCS(=O)(=O)NC(=O)c2nc(N3CCc4cccc(C(=O)Nc5nc6ccccc6s5)c4C3)ccc2-c2cnn(CC3CCCCC3)c2C)C(C)(C)C)cc1 [I-118] |  | > 10000 | Dmax ([4]; read-out: Bcl-xL WB in MOLT-4 degradation 16 h: Average Dmax %): > 75%; DC50 ([4]; read-out: Bcl-xL WB in MOLT-4 degradation 16 h: Mean external-Abs DC50): < 10 nM; Dmax [1]: > 75%; DC50 [1]: < 10 nM
Cc1cc(N(C)c2ccc(-c3cnn(CC45CC6CC(CC(C6)C4)C5)c3C)c(C(=O)NS(=O)(=O)CCNCCC(=O)N[C@H](C(=O)N3C[C@H](O)C[C@H]3C(=O)N[C@@H](C)c3ccc(-c4scnc4C)cc3)C(C)(C)C)n2)nnc1Nc1nc2ccccc2s1 [I-427] | 100 to 1000 | > 10000 | 
C#Cc1ccc(CNC(=O)[C@@H]2C[C@@H](O)CN2C(=O)[C@@H](NC(=O)CCNCCS(=O)(=O)NC(=O)c2nc(N(C)c3cc(C)c(Nc4nc5ccccc5s4)nn3)ccc2-c2cnn(CC34CC5CC(CC(C5)C3)C4)c2C)C(C)(C)C)c(OCCO)c1 [I-431] | 100 to 1000 | > 10000 | 
Cc1c(-c2ccc(N3CCc4cccc(C(=O)Nc5nc6cccnc6s5)c4C3)nc2C(=O)NS(=O)(=O)CCCCCC(=O)N[C@H](C(=O)N2C[C@H](O)C[C@H]2C(=O)N[C@@H](C)c2ccc(C#N)cc2O)C(C)(C)C)cnn1CC1CCCCC1 (single isomer, unassigned) [I-485] | > 3000 | > 10000 | 
Cc1cc(N(C)c2ccc(-c3cnn(CC45CC6CC(CC(C6)C4)C5)c3C)c(C(=O)NS(=O)(=O)CCN3CC(C(=O)N[C@H](C(=O)N4C[C@H](O)C[C@H]4C(=O)N[C@@H](C)c4ccc(-c5scnc5C)cc4)C(C)(C)C)C3)n2)nnc1Nc1nc2ccccc2s1 [I-432] | 1000 to 3000 | > 10000 | 
Cc1cc(N(C)c2ccc(-c3cnn(CC45CC6CC(CC(C6)C4)C5)c3C)c(C(=O)NS(=O)(=O)CCCN(C)CC(=O)N[C@H](C(=O)N3C[C@H](O)C[C@H]3C(=O)N[C@@H](C)c3ccc(-c4scnc4C)cc3)C(C)(C)C)n2)nnc1Nc1nc2cccnc2s1 [I-448] | 100 to 1000 | > 10000 | 
Cc1ncsc1-c1ccc([C@H](C)NC(=O)[C@@H]2C[C@@H](OC(=O)CCP(=O)(O)O)CN2C(=O)[C@@H](NC(=O)CCCS(=O)(=O)NC(=O)c2nc(N3CCc4cccc(C(=O)Nc5nc6ccccc6s5)c4C3)ccc2-c2cnn(CC3CCCCC3)c2C)C(C)(C)C)cc1 [I-411] |  | > 10000 | IC50 ([2]; 72 h): 100 to 1000 nM
Cc1ncsc1-c1ccc(CNC(=O)[C@@H]2C[C@@H](O)CN2C(=O)[C@@H](NC(=O)C2(F)CC2)C(C)(C)C)c(OCCCCCCN(C)C(=O)c2nc(N3CCc4cccc(C(=O)Nc5nc6ccccc6s5)c4C3)ccc2-c2cnn(CC3CCCCC3)c2C)c1 [I-168] | 100 to 1000 | > 10000 | 
